Data as given in patent US7772241B2, “Variolin derivatives and their use as antitumor agents” (Pharma Mar S.A., priority 2001, dated 2010).

Experiments:
[1] = tested on: SK-MEL-28; experiment: Inhibition of cells growth by colorimetric (SRB) assay, SK-MEL-28; conditions: for GI50 / CC50: Homo sapiens, SK-MEL-28, 48 h; for GI50: read-out: GI50 MEL-28, SRB assay, 48 hours exposure; for CC50: read-out: LC50 MEL-28, SRB assay, 48 hours exposure; for TGI MEL-28: SRB assay, 48 hours exposure
Summary of the method: (§1)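 Read-out is sulforhodamine B protein stain (OD 490 nm) after cold TCA fixation, following 48 h continuous exposure to samples spanning 10 to 10^−8 μg/ml.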

[2] = tested on: LoVo-Dox; experiment: Inhibition of cells growth by colorimetric (SRB) assay, LoVo-Dox; conditions: for GI50 / CC50: Homo sapiens, 48 h; for GI50: read-out: GI50 LOVO-DOX, SRB assay, 48 hours exposure; for CC50: read-out: LC50 LOVO-DOX, SRB assay, 48 hours exposure; for TGI LOVO-DOX: SRB assay, 48 hours exposure
Summary of the method: as §1

[3] = tested on: A-549; experiment: Inhibition of cells growth by colorimetric (SRB) assay, A-549; conditions: for GI50 / CC50: Homo sapiens, A549, 48 h; for GI50: read-out: GI50 A-549, SRB assay, 48 hours exposure; for CC50: read-out: LC50 A-549, SRB assay, 48 hours exposure; for TGI A-549: SRB assay, 48 hours exposure
Summary of the method: as §1

[4] = tested on: SK-BR-3; experiment: Inhibition of cells growth by colorimetric (SRB) assay, SK-BR-3; conditions: for GI50 / CC50: Homo sapiens, SK-BR-3, 48 h; for GI50: read-out: GI50 SK-BR-3, SRB assay, 48 hours exposure; for CC50: read-out: LC50 SK-BR-3, SRB assay, 48 hours exposure; for TGI SK-BR-3: SRB assay, 48 hours exposure
Summary of the method: as §1

[5] = tested on: SK-OV-3; experiment: Inhibition of cells growth by colorimetric (SRB) assay, SK-OV-3; conditions: for GI50 / CC50: Homo sapiens, SK-OV-3, 48 h; for GI50: read-out: GI50 SKOV-3, SRB assay, 48 hours exposure; for CC50: read-out: LC50 SKOV-3, SRB assay, 48 hours exposure; for TGI SKOV-3: SRB assay, 48 hours exposure
Summary of the method: as §1

[6] = tested on: LNCaP; experiment: Inhibition of cells growth by colorimetric (SRB) assay, LNCaP; conditions: for GI50 / CC50: Homo sapiens, LNCaP, 48 h; for GI50: read-out: GI50 LN-caP, SRB assay, 48 hours exposure; for CC50: read-out: LC50 LN-caP, SRB assay, 48 hours exposure; for TGI LN-caP: SRB assay, 48 hours exposure
Summary of the method: as §1

[7] = Inhibition of cells growth by colorimetric (SRB) assay, HMEC1; conditions: human, HMEC1 cells, LC50 H-MEC-1, SRB assay, 48 hours exposure
[8] = tested on: HMEC1; experiment: as above; conditions: for GI50: Homo sapiens, HMEC-1, 48 h, read-out: GI50 H-MEC-1, SRB assay, 48 hours exposure; for TGI H-MEC-1: SRB assay, 48 hours exposure, in M (unit assumed)
[9] = tested on: K-562; experiment: Inhibition of cells growth by colorimetric (SRB) assay, K-562; conditions: for GI50 / CC50: Homo sapiens, K562, 48 h; for GI50: read-out: GI50 K-562, SRB assay, 48 hours exposure; for CC50: read-out: LC50 K-562, SRB assay, 48 hours exposure; for TGI K-562: SRB assay, 48 hours exposure
Summary of the method: as §1

[10] = tested on: PANC-1; experiment: Inhibition of cells growth by colorimetric (SRB) assay, PANC-1; conditions: for GI50 / CC50: Homo sapiens, PANC-1, 48 h; for GI50: read-out: GI50 PANC-1, SRB assay, 48 hours exposure; for CC50: read-out: LC50 PANC-1, SRB assay, 48 hours exposure; for TGI PANC-1: SRB assay, 48 hours exposure
Summary of the method: as §1

[11] = tested on: IGROV-ET; experiment: Inhibition of cells growth by colorimetric (SRB) assay, IGROV-ET; conditions: for GI50 / CC50: Homo sapiens, 48 h; for GI50: read-out: GI50 IGROV-ET, SRB assay, 48 hours exposure; for CC50: read-out: LC50 IGROV-ET, SRB assay, 48 hours exposure; for TGI IGROV-ET: SRB assay, 48 hours exposure
Summary of the method: as §1

[12] = tested on: HT-29; experiment: Inhibition of cells growth by colorimetric (SRB) assay, HT-29; conditions: for GI50 / CC50: Homo sapiens, HT-29, 48 h; for GI50: read-out: GI50 HT-29, SRB assay, 48 hours exposure; for CC50: read-out: LC50 HT-29, SRB assay, 48 hours exposure; for TGI HT-29: SRB assay, 48 hours exposure
Summary of the method: as §1

[13] = tested on: LoVo; experiment: Inhibition of cells growth by colorimetric (SRB) assay, LoVo; conditions: for GI50 / CC50: Homo sapiens, LoVo, 48 h; for GI50: read-out: GI50 LOVO, SRB assay, 48 hours exposure; for CC50: read-out: LC50 LOVO, SRB assay, 48 hours exposure; for TGI LOVO: SRB assay, 48 hours exposure
Summary of the method: as §1

[14] = tested on: IGROV-1; experiment: Inhibition of cells growth by colorimetric (SRB) assay, IGROV-1; conditions: for GI50 / CC50: Homo sapiens, IGROV-1, 48 h; for GI50: read-out: GI50 IGROV, SRB assay, 48 hours exposure; for CC50: read-out: LC50 IGROV, SRB assay, 48 hours exposure; for TGI IGROV: SRB assay, 48 hours exposure
Summary of the method: as §1

[15] = tested on: DU-145; experiment: Inhibition of cells growth by colorimetric (SRB) assay, DU-145; conditions: for GI50 / CC50: Homo sapiens, DU-145, 48 h; for GI50: read-out: GI50 DU-145, SRB assay, 48 hours exposure; for CC50: read-out: LC50 DU-145, SRB assay, 48 hours exposure; for TGI DU-145: SRB assay, 48 hours exposure
Summary of the method: as §1

In the case of Nc1nccc(-c2c3cc(Cl)cnc3n3c(N)nccc23)n1 [Compound 49], the GI50 [1] is reported as 6.35 µM, the CC50 [1] is reported as 32.1 µM and the “TGI MEL-28” value [1] is reported as 1.43E−05. The GI50 [2] was 2.11 µM, the CC50 [2] was 27.6 µM and the “TGI LOVO-DOX” value [2] was 7.86E−06. For the same compound, the GI50 [3] was 2.11 µM, the CC50 [3] was 32.1 µM and the “TGI A-549” value [3] was 9.21E−06. For the same compound, the GI50 [4] was 7.19 µM, the CC50 [4] was 32.1 µM and the “TGI SK-BR-3” value [4] was 1.86E−05. The GI50 [5] was 5.42 µM, the CC50 [5] was 32.1 µM and the “TGI SKOV-3” value [5] was 1.50E−05. The GI50 [6] was 1.26 µM, the CC50 [6] was 19.5 µM and the “TGI LN-caP” value [6] was 4.30E−06. The CC50 at 48 h [7] was 8.73 µM, the GI50 [8] was 0.456 µM and the “TGI H-MEC-1” value [8] was 4.59E−06. For the same compound, the GI50 [9] was 13.9 µM, the CC50 [9] was 32.1 µM and the “TGI K-562” value [9] was 2.77E−05. For the same compound, the GI50 [10] was 10.7 µM, the CC50 [10] was 32.1 µM and the “TGI PANC-1” value [10] was 3.21E−05. The GI50 [11] was 4.23 µM, the CC50 [11] was 32.1 µM and the “TGI IGROV-ET” value [11] was 1.20E−05. The GI50 [12] was 12 µM, the CC50 [12] was 32.1 µM and the “TGI HT-29” value [12] was 3.21E−05. For the same compound, the GI50 [13] was 2.37 µM, the CC50 [13] was 32.1 µM and the “TGI LOVO” value [13] was 1.16E−05. For the same compound, the GI50 [14] was 4.68 µM, the CC50 [14] was 29.3 µM and the “TGI IGROV” value [14] was 1.17E−05. The GI50 [15] was 5.33 µM, the CC50 [15] was 32.1 µM and the “TGI DU-145” value [15] was 1.38E−05.

For CS(=O)(=O)c1nccc(-c2c3c(Cl)ccnc3n3c(N)nccc23)n1 [Compound 111], the GI50 [1] was 1.25 µM, the CC50 [1] was 15.7 µM and the “TGI MEL-28” value [1] was 5.15E−06. The GI50 [2] was 1.51 µM, the CC50 [2] was 26.7 µM and the “TGI LOVO-DOX” value [2] was 7.07E−06. For the same compound, the GI50 [3] was 4.35 µM, the CC50 [3] was 26.7 µM and the “TGI A-549” value [3] was 1.30E−05. The GI50 [4] was 4.35 µM, the CC50 [4] was 21.3 µM and the “TGI SK-BR-3” value [4] was 9.69E−06. For the same compound, the GI50 [5] was 2.05 µM, the CC50 [5] was 21.8 µM and the “TGI SKOV-3” value [5] was 6.88E−06. The GI50 [6] was 4.3 µM, the CC50 [6] was 19.9 µM and the “TGI LN-caP” value [6] was 9.26E−06. For the same compound, the CC50 at 48 h [7] was 0.603 µM, the GI50 [8] was 0.00108 µM and the “TGI H-MEC-1” value [8] was 1.53E−08. The GI50 [9] was 7.26 µM, the CC50 [9] was 26.7 µM and the “TGI K-562” value [9] was 1.59E−05. For the same compound, the GI50 [10] was 3.07 µM, the CC50 [10] was 24.6 µM and the “TGI PANC-1” value [10] was 8.70E−06. The GI50 [11] was 3.87 µM, the CC50 [11] was 26.7 µM and the “TGI IGROV-ET” value [11] was 1.10E−05. For the same compound, the GI50 [12] was 5.34 µM, the CC50 [12] was 26.7 µM and the “TGI HT-29” value [12] was 1.66E−05. For the same compound, the GI50 [13] was 1.54 µM, the CC50 [13] was 26.7 µM and the “TGI LOVO” value [13] was 6.99E−06. The GI50 [14] was 3.55 µM, the CC50 [14] was 25.9 µM and the “TGI IGROV” value [14] was 9.60E−06. The GI50 [15] was 1.94 µM, the CC50 [15] was 16.8 µM and the “TGI DU-145” value [15] was 6.40E−06.
